Reference: PubChem BioAssay AID2060491 (Molecular Pharmacology Branch, DTP, NCI, 2025)
“And” between values parts separate entries of the source, which are not always exact repeats. Equal entries are not always repeated.

Test system: 857933-349-R-J2-PDC complex spheroids, viability
Experiment: Anticancer human tumor 857933-349-R-J2-PDC patient-derived colon adenocarcinoma cell line growth inhibition [GQUAD]
Settings: for viability, T/C: stronger effect = lower value
Text: DNA G-quadruplex Stabilizer Agents in Combinations in Complex Spheroids
A high-throughput screen of multi-cell type tumor spheroids was designed to identify active combinations of DNA G-quadruplex stabilizer agents and targeted small molecules. Complex spheroids include a stromal component modeled by human endothelial cells (HUVEC) and fibroblasts modeled by human mesenchymal stem cells (MSCs). The concentration ranges selected for each drug and investigational agent were based upon clinically achievable concentrations if the clinical Cmax of the agent was known.
Compounds. The drugs and investigational agents: pidnarulex (CX-5461; NSC782164), APTO-253 (NSC789042), BRACO-19 (NSC847499), peposertib (NSC802822), ceralasertib (NSC780249), elimusertib (NSC800525), camonsertib (NSC841442), AZD-1390 (NSC803789), olaparib (NSC753686), talazoparib (NSC767125), ART-558 (NSC835418), sotorasib (NSC818433), MRTX-1133 (NSC836407), SN-38 (NSC673596), topotecan (NSC609699), etoposide (NSC141540), doxorubicin (NSC123127), gemcitabine (NSC613327), 5-fluorouracil (NSC19893), paclitaxel (NSC125973), vemurafenib (NSC761431), panobinostat (NSC761190), R-306465 (JNJ-16241199; NSC773264), adavosertib (NSC754352), TP-3654 (NSC805149), carboplatin (NSC241240), KSQ-4279 (NSC840948), and staurosporine (NSC755774) were obtained from the National Cancer Institute (NCI) Developmental Therapeutics Program Chemical Repository (34). The FDA-approved anticancer drug set is available from the NCI Developmental Therapeutics Program. […] The stock solutions were prepared in dimethyl sulfoxide (DMSO, Sigma-Aldrich, St. Louis, MO, cat. D2650) at 800-fold the tested concentration and stored at -70 degrees C prior to their use. All drugs and investigational agents were tested over a range starting from a high concentration at or near the clinical Cmax and decreasing in half-log increments. If the clinical Cmax for an agent had not been determined, the highest concentration tested was 10 microM.
2.3 Cell Culture. All cells were maintained in an incubator at 37 degrees C and 5% CO2 with 95% humidity. The PDC lines were cultured according to standard operating procedures established by the NCI PDMR. All PDCs were thawed and cultured in Matrigel-coated flasks prepared with a working solution of 1X Ham's F-12 nutrient mix, without supplementation (Invitrogen, cat. 11765054), 100 U/mL penicillin-streptomycin (Invitrogen, cat. 15140122), and 2.5% Matrigel (Corning Inc., cat. 354248) for the first three passages. The 857933-349-R-J2-PDC line was cultured in 6C/Colon 1B media, which includes advanced DMEM/F-12 (Thermo Fisher Scientific, cat. 12634028), 10 mM HEPES (Thermo Fisher Scientific, cat. 15630080), 1X GlutaMAX supplement (Thermo Fisher Scientific, cat. 35050061), 0.1 mg/mL primocin (InvivoGen, cat. ant-pm-2), 10% defined fetal bovine serum, heat inactivated (HyClone Laboratories Inc., cat. SH30070.03HI), 50% L-WRN conditioned media (ATCC, cat. CRL-3276), 1.25 mM N-Acetyl-L-cysteine (Sigma-Aldrich, cat. A9165), 10 mM nicotinamide (Sigma-Aldrich, cat. N0636), 1X B-27 supplement (Thermo Fisher Scientific, cat. 17504044), 1X N-2 supplement (Thermo Fisher Scientific, cat. 17502048), 10 microM Y-27632 dihydrochloride (Tocris Bioscience, cat. 1254), and 50 ng/mL human EGF recombinant protein (Thermo Fisher Scientific, cat. PHG0311). The 485176-168-R4-J1-PDC line was cultured in Panc media, which includes all 6C/Colon 1B media components plus 100 ng/mL human FGF-10 (Thermo Fisher Scientific, cat. 100-26), 500 nM SB-431542 (Selleckchem, cat. S1067), and gastrin (Tocris, cat. 3006).
[…]
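Note: spheroids exposed to compounds for one week before readout.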
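Throughout, for viability, T/C: percent viability relative to vehicle DMSO wells taken as 100%.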

Question: How did the viability, T/C (compound 0.0316 µM) turn out when `Cc1cccc(N(C)C(=O)C2C(O)CCN2c2nc(C)cc(C(F)(F)F)c2C#N)c1` (stereo not given) was run?
Answer: 104% and 102% and 105%

Question: What about the viability, T/C (compound 0.1 µM) of the same compound?
Answer: 93.1% and 96.1% and 98.8%

Question: And the viability, T/C (compound 0.316 µM)?
Answer: 107% and 103% and 101%

Question: What about the viability, T/C (compound 1 µM) of the same compound?
Answer: 91.1% and 105% and 94.8%

Question: What about the viability, T/C (compound 3.16 µM) of the same compound?
Answer: 114% and 105% and 106%

Question: What about the viability, T/C (compound 10 µM) of the same compound?
Answer: 91.3% and 104% and 91.7%

Question: And the IC50 (curve of compound)?
Answer: > 10000 nM

Question: What does the source list for `Cc1[nH]c2ccccc2c1CCNCc1ccc(/C=C/C(=O)NO)cc1` + Cc1cnc(CNC(=O)c2c(=O)c3ccc(N4CCCN(C)CC4)nc3n3c2sc2ccccc23)cn1?
Answer: IC50 (curve of first compound, second compound 0.0316 µM): 267 nM; IC50 (curve of first compound, second compound 0.1 µM): 155 nM; IC50 (curve of first compound, second compound 0.316 µM): < 0.999 nM; IC50 (curve of first compound, second compound 1 µM): < 0.999 nM; IC50 (curve of first compound, second compound 3.16 µM): < 0.999 nM; IC50 (curve of first compound, second compound 10 µM): < 0.999 nM; viability, T/C (second compound 0.0316 µM, first compound 0.000999 µM): 91%; viability, T/C (second compound 0.0316 µM, first compound 0.00316 µM): 93.7%; viability, T/C (second compound 0.0316 µM, first compound 0.00999 µM): 106%; viability, T/C (second compound 0.0316 µM, first compound 0.0316 µM): 86.5%; viability, T/C (second compound 0.0316 µM, first compound 0.0999 µM): 93.8%; viability, T/C (second compound 0.0316 µM, first compound 0.316 µM): 42.5%; viability, T/C (second compound 0.1 µM, first compound 0.000999 µM): 51.7%; viability, T/C (second compound 0.1 µM, first compound 0.00316 µM): 65.6%; viability, T/C (second compound 0.1 µM, first compound 0.00999 µM): 65.6%; viability, T/C (second compound 0.1 µM, first compound 0.0316 µM): 77%; viability, T/C (second compound 0.1 µM, first compound 0.0999 µM): 75.5%; viability, T/C (second compound 0.1 µM, first compound 0.316 µM): 22.2%; viability, T/C (second compound 0.316 µM, first compound 0.000999 µM): 20.1%; viability, T/C (second compound 0.316 µM, first compound 0.00316 µM): 27.2%; viability, T/C (second compound 0.316 µM, first compound 0.00999 µM): 28.9%; viability, T/C (second compound 0.316 µM, first compound 0.0316 µM): 47.6%; viability, T/C (second compound 0.316 µM, first compound 0.0999 µM): 37.1%; viability, T/C (second compound 0.316 µM, first compound 0.316 µM): 3.64%; viability, T/C (second compound 1 µM, first compound 0.000999 µM): 4.8%; viability, T/C (second compound 1 µM, first compound 0.00316 µM): 4.9%; viability, T/C (second compound 1 µM, first compound 0.00999 µM): 6.18%; viability, T/C (second compound 1 µM, first compound 0.0316 µM): 9.89%; viability, T/C (second compound 1 µM, first compound 0.0999 µM): 5.17%; viability, T/C (second compound 1 µM, first compound 0.316 µM): 0.17%; viability, T/C (second compound 3.16 µM, first compound 0.000999 µM): 2.36%; viability, T/C (second compound 3.16 µM, first compound 0.00316 µM): 3.21%; viability, T/C (second compound 3.16 µM, first compound 0.00999 µM): 2.34%; viability, T/C (second compound 3.16 µM, first compound 0.0316 µM): 1.12%; viability, T/C (second compound 3.16 µM, first compound 0.0999 µM): 0.55%; viability, T/C (second compound 3.16 µM, first compound 0.316 µM): 0.15%; viability, T/C (second compound 10 µM, first compound 0.000999 µM): 0.3%; viability, T/C (second compound 10 µM, first compound 0.00316 µM): 0.24%; viability, T/C (second compound 10 µM, first compound 0.00999 µM): 0.43%; viability, T/C (second compound 10 µM, first compound 0.0316 µM): 0.42%; viability, T/C (second compound 10 µM, first compound 0.0999 µM): 0.37%; viability, T/C (second compound 10 µM, first compound 0.316 µM): 0.26%

Question: Which viability, T/C (compound 0.0316 µM) does the source give for `COc1ccc([C@@H](O)c2cc(-c3ncnc4cc(N5CCOCC5)ccc34)c(F)cc2Cl)nn1` here?
Answer: 106% and 108% and 100%

Question: And the viability, T/C (compound 0.1 µM)?
Answer: 90.5% and 103% and 89.7%

Question: And the viability, T/C (compound 0.316 µM)?
Answer: 105% (2×) and 86%

Question: And the viability, T/C (compound 1 µM)?
Answer: 82.6% and 98.4% and 79.4%

Question: What about the viability, T/C (compound 3.16 µM) of the same compound?
Answer: 70.2% and 85.2% and 62%

Question: And the viability, T/C (compound 10 µM)?
Answer: 56.8% and 59.8% and 48.4%

Question: And the IC50 (curve of compound)?
Answer: > 10000 nM and 8850 nM

Question: `C#Cc1c(F)ccc2cc(O)cc(-c3ncc4c(N5CC6CCC(C5)N6)nc(OCC56CCCN5CC(F)C6)nc4c3F)c12` (stereo not given) was tested. Which viability, T/C (compound 0.0316 µM) did it give?
Answer: 94.6% and 101% and 111%

Question: And the viability, T/C (compound 0.1 µM)?
Answer: 93.3% and 94.7% and 99.7%

Question: And the viability, T/C (compound 0.316 µM)?
Answer: 93.6% and 91.5% and 99.1%

Question: And the viability, T/C (compound 1 µM)?
Answer: 69.2% and 83.1% and 96.8%

Question: What about the viability, T/C (compound 3.16 µM) of the same compound?
Answer: 75.5% and 70.2% and 97.1%

Question: And the viability, T/C (compound 10 µM)?
Answer: 70% and 66.5% and 97.9%

Question: And the IC50 (curve of compound)?
Answer: > 10000 nM

Question: `O=C(NO)c1cnc(N2CCN(S(=O)(=O)c3ccc4ccccc4c3)CC2)nc1` was tested. Which viability, T/C (compound 0.0316 µM) did it give?
Answer: 112% and 103% and 107%

Question: What about the viability, T/C (compound 0.1 µM) of the same compound?
Answer: 105% and 103% and 92.6%

Question: What about the viability, T/C (compound 0.316 µM) of the same compound?
Answer: 104% and 103% and 82.3%

Question: And the viability, T/C (compound 1 µM)?
Answer: 75.6% and 75% and 19.8%

Question: What about the viability, T/C (compound 3.16 µM) of the same compound?
Answer: 0.92% and 0.99% and 0.08%

Question: What about the viability, T/C (compound 10 µM) of the same compound?
Answer: 0.38% and 0.52% and 0.08%

Question: And the IC50 (curve of compound)?
Answer: 1490 nM and 1480 nM and 570 nM
